Bounds are passed on as bounds.

In series [1] the target is voltage-gated sodium channel Nav1.7 (Homo sapiens (Human), UniProt Q15858). The series can be described thus: Nav1.7 screening assay, IonWorks Quattro automated patch-clamp electrophysiology. Type of series: cell-based. The note with it: stable CHO or HEK293 cell line expressing Nav1.7; percent block at peak 1 and peak 10; 5 minutes compound incubation; read-out: Nav 1.7 IC50. The protocol:
(§1) Assay Procedure Nav1.7 and Nav1.5 Screening Assay
(§2) Stable cell lines expressing the full-length protein of the voltage-gated sodium channels Nav1.7 or Nav1.5, with or without one beta-1, beta-2, beta-3, or beta-4 subunit, are created by transfected CHO cells or HEK293 cells, or any other suitable cell line, with a vector construct containing the complete open reading frame under a suitable promoter, as well known in the art.
(§3) Electrophysiological studies are performed with an IonWorks Quattro (Molecular Devices Corp.) automated patch-clamp electrophysiology platform as described by (Schroeder K et al. Journal of Biomolecular Screening 2003, 8 (1), 50-64). Buffers for the experiments have the following composition (mM): Internal solution; K-gluconate 100, KCl 40, MgCl2 3.2, HEPES 5, EGTA 3, pH 7.3. To this amphotericin B is added to final concentration of 0.1 mg/ml to generate access solution. External solution; Dulbecco's Phosphate buffered saline (D-PBS) NaCl 137.93, KCl 2.67, KH2PO4 1.47, Na2HPO4 8.06, CaCl2 0.90, MgCl2 0.49. Prior to the experiment the cells expressing the voltage-gated ion channel of interest are detached from the tissue culture flasks, centrifuged and resuspended in D-PBS. Compounds are prepared and serially diluted in DMSO and finally diluted 1:100 in D-PBS. Cells are exposed to compounds through the pipetting system integrated into the platform and the voltage-gated ion channel of interest is activated with specific voltage stimulation protocols. The following voltage stimulation protocol is used for testing compounds against the voltage-gated sodium channel Nav1.7; from a holding potential of −100 mV a train of eight 60 ms depolarising steps to −20 mV at a frequency of 14 Hz are employed followed by a further step to −20 mV for 2000 ms. After which the voltage is returned to −100 mV for 10 ms before another voltage step to −20 mV for 60 ms is applied. The following voltage stimulation protocol is used for testing compounds against the voltage-gated sodium channel Nav1.5; from a holding potential of −120 mV a train of twenty-six 120 ms depolarising steps to −20 mV at a frequency of 5 Hz are employed. Recordings are made before and after compound addition with the compound incubation time being 5 minutes.
(Patch clamp records ionic current or voltage across a cell membrane.)

Series [2] deals with voltage-gated sodium channel Nav1.5 (Homo sapiens (Human), UniProt Q14524). The series can be described thus: Nav1.5 screening assay, IonWorks Quattro automated patch-clamp electrophysiology. The class given is cell-based. The note with it: stable CHO or HEK293 cell line expressing Nav1.5; percent block at peak 1 and 25; 5 minutes compound incubation; read-out: Nav 1.5 IC50. The procedure: as §1, §2, §3
Chain of voltage-gated sodium channel Nav1.5 (Q14524 whole entry): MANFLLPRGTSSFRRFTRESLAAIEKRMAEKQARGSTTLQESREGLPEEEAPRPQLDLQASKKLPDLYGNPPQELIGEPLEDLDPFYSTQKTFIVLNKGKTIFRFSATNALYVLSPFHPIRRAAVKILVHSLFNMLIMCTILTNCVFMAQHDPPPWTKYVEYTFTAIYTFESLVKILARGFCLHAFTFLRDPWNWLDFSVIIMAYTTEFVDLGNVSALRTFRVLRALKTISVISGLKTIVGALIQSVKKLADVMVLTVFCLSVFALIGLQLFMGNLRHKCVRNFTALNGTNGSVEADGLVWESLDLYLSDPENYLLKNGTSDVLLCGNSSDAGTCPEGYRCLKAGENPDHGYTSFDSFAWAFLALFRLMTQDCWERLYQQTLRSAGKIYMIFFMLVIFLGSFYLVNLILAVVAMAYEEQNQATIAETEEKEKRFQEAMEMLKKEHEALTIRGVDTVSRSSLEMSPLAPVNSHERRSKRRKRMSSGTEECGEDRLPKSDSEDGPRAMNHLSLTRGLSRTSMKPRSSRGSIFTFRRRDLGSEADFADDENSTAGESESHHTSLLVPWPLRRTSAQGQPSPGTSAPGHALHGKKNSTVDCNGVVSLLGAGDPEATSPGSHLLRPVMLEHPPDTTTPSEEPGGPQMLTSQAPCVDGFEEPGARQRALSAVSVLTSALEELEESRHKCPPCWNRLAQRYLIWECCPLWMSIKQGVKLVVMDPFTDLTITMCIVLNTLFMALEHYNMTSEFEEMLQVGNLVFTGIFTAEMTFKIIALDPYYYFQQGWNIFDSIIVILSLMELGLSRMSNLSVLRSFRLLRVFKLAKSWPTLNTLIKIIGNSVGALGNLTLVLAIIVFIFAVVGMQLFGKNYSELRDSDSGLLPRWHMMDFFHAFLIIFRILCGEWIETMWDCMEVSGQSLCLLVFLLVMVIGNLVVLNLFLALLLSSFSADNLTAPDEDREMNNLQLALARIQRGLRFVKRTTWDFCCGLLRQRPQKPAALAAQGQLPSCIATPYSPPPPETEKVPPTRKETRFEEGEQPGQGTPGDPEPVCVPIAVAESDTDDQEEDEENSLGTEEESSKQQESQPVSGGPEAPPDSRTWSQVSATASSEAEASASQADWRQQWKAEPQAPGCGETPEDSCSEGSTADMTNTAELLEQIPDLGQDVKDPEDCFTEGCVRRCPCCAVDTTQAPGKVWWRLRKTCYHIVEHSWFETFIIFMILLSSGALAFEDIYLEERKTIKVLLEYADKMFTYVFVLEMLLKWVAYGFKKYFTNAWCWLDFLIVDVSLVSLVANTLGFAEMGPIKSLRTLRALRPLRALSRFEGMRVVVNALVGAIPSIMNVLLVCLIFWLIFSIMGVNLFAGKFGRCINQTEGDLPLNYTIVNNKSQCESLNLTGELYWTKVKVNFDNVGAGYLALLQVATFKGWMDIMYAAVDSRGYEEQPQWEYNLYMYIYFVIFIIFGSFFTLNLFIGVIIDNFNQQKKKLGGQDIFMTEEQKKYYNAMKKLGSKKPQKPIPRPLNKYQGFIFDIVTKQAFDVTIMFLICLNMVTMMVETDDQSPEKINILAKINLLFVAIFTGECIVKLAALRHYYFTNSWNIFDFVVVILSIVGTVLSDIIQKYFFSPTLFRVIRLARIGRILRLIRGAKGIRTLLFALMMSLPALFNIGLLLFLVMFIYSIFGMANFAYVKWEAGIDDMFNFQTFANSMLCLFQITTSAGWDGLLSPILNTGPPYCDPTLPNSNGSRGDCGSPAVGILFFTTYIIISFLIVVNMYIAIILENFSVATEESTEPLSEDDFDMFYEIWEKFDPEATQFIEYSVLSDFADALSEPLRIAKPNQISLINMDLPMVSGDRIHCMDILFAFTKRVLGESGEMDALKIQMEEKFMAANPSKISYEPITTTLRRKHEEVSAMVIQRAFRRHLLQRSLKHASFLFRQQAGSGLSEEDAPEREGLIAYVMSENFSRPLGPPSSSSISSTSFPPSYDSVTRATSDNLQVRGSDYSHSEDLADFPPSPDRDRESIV

Chain of voltage-gated sodium channel Nav1.7 (Q15858 whole entry): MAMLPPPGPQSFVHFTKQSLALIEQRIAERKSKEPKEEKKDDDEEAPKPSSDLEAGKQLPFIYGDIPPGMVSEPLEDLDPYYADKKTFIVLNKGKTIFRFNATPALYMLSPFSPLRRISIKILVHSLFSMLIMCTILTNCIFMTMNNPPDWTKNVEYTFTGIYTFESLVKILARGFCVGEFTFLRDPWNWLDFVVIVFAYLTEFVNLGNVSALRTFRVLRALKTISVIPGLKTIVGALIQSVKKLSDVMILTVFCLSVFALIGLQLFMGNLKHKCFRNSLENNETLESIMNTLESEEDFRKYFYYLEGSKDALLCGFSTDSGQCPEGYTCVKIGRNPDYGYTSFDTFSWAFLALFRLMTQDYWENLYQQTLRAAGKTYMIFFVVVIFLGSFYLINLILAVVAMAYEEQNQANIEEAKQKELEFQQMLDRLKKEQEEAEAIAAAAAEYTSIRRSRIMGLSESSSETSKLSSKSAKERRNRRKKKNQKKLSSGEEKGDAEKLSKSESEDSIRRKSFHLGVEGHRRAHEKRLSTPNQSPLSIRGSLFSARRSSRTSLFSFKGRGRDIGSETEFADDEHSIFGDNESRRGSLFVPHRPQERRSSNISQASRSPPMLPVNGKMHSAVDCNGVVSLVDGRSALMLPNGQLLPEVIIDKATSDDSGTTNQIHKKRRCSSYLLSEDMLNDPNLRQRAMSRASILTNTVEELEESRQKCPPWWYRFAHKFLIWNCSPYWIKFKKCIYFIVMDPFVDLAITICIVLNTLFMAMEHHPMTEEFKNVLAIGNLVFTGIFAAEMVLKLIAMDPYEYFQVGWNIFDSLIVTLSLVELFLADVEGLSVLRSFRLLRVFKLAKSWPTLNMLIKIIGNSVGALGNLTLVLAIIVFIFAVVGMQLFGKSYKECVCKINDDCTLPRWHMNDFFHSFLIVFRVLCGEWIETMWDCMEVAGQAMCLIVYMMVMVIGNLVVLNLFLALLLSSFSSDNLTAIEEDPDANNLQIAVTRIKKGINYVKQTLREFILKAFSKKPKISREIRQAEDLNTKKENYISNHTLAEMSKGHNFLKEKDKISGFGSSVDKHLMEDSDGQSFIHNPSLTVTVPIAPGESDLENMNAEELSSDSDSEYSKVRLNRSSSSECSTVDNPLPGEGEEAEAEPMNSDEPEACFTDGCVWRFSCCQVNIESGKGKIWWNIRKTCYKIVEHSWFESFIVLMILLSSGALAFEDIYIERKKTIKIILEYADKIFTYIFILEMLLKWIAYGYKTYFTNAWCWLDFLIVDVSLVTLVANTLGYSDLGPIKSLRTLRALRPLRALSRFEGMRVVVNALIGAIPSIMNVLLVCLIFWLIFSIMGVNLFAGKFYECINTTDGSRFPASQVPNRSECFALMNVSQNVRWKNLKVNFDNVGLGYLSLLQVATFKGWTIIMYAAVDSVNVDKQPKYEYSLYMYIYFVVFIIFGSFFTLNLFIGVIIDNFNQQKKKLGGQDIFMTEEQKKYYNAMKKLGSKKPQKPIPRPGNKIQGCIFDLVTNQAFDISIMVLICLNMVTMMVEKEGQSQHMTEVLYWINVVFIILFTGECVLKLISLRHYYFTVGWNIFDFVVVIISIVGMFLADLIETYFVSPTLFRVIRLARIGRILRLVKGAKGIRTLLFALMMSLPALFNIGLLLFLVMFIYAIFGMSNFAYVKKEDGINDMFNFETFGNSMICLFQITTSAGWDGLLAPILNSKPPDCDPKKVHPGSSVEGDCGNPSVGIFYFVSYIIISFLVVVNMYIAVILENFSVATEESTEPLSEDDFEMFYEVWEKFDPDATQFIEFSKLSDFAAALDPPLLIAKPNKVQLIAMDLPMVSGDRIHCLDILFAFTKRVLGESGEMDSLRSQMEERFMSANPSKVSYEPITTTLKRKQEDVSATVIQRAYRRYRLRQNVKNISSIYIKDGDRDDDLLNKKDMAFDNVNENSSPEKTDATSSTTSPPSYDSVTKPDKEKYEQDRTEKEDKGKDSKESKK

The IC50 is the point on the concentration scale where inhibition reaches its midpoint. As for `NC(=O)Cn1nc(N)c2ccc(-c3cccc(F)c3OCC(F)(F)C(F)(F)F)cc21` [Example 26, 2-(3-amino-6-(3-fluoro-2-(2,2,3,3,3-pentafluoropropoxy)phenyl)-1H-indazol-1-yl)acetamide], the IC50 in series [1] is 3650 nM. `Cn1nc(N)c2ccc(-c3c(F)cccc3OCC(F)(F)C(F)(F)F)cc21` [Example 24, 6-(2-fluoro-6-(2,2,3,3,3-pentafluoropropoxy)phenyl)-1-methyl-1H-indazol-3-amine]: the IC50 in series [1] is 560 nM; in series [2] it was more than 33000 nM. Turning to `CNc1nn(C)c2cc(-c3cccc(F)c3OCC(F)F)ccc12` [Example 57, 6-(2-(2,2-difluoroethoxy)-3-fluorophenyl)-N,1-dimethyl-1H-indazol-3-amine], the IC50 in series [1] was 1300 nM; in series [2] it was more than 33000 nM.

With `Cn1nc(N)c2ccc(-c3cccnc3OCC(F)(F)F)cc21` [Example 47, 1-methyl-6-(2-(2,2,2-trifluoroethoxy)pyridin-3-yl)-1H-indazol-3-amine], the IC50 was 2370 nM in series [1] and more than 33000 nM in series [2]. For “6-(2-(2,2,3,3,3-pentafluoropropoxy)phenyl)-1H-indazol-3-amine [Example 14]”, the IC50 was 560 nM in series [1] and 8000 nM in series [2]. Turning to `Cn1nc(N)c2ccc(-c3ccccc3OCC(F)(F)F)cc21` [Example 8, 1-methyl-6-(2-(2,2,2-trifluoroethoxy)phenyl)-1H-indazol-3-amine], the IC50 in series [1] is 320 nM; in series [2], more than 33000 nM. For `Cn1nc(N)c2ccc(-c3cccc(F)c3OCC(F)(F)C(F)(F)F)cc21` [Example 22, 6-(3-fluoro-2-(2,2,3,3,3-pentafluoropropoxy)phenyl)-1-methyl-1H-indazol-3-amine] the same measures were 100 nM and more than 33000 nM. For `Cn1nc(NCCO)c2ccc(-c3ccccc3OCC(F)(F)C(F)(F)F)cc21` [Example 12, 2-(1-methyl-6-(2-(2,2,3,3,3-pentafluoropropoxy)phenyl)-1H-indazol-3-ylamino)ethanol] the same measures were 820 nM and more than 33000 nM.

In the case of `Nc1nn(CCCO)c2cc(-c3ccccc3C(F)(F)F)ccc12` [Example 67, 3-(3-amino-6-(2-(trifluoromethyl)phenyl)-1H-indazol-1-yl)propan-1-ol], the IC50 in series [1] came to 740 nM; in series [2], 30000 nM. For `Cn1nc(N)c2ccc(-c3cccc(F)c3OC(F)F)cc21` [Example 58, 6-(2-(difluoromethoxy)-3-fluorophenyl)-1-methyl-1H-indazol-3-amine] the same measures were 860 nM and more than 33000 nM.

On to `COc1cccc(-c2ccc3c(N)nn(C)c3c2)c1OCC(F)(F)F` [Example 40, 6-(3-methoxy-2-(2,2,2-trifluoroethoxy)phenyl)-1-methyl-1H-indazol-3-amine], for which the values for the IC50 in series [1] and in series [2] were 200 nM and more than 33000 nM, respectively. Turning to `COCCn1nc(N)c2ccc(-c3ccccc3OC(F)(F)F)cc21` [Example 82, 1-(2-methoxyethyl)-6-(2-(trifluoromethoxy)phenyl)-1H-indazol-3-amine], the IC50 in series [1] was 2000 nM. On to `COc1cccc(-c2ccc3c(N)nn(C)c3c2)c1OCC(F)F` [Example 41, 6-(2-(2,2-difluoroethoxy)-3-methoxyphenyl)-1-methyl-1H-indazol-3-amine], for which the IC50 in series [2] is more than 33000 nM. Consider `Nc1nn(CCCO)c2cc(-c3ccccc3OC(F)(F)F)ccc12` [Example 68, 3-(3-amino-6-(2-(trifluoromethoxy)phenyl)-1H-indazol-1-yl)propan-1-ol], for which the figures for the IC50 in series [1] and in series [2] were 200 nM and 25000 nM, respectively.

Take `Cn1nc(N)c2ccc(-c3cccc(F)c3OCC(F)F)cc21` [Example 42, 6-(2-(2,2-difluoroethoxy)-3-fluorophenyl)-1-methyl-1H-indazol-3-amine]: the half-inhibitory concentration (IC50) in series [1] worked out at 290 nM; in series [2] it was 23000 nM. On to `CN1CCC(CNc2nn(C)c3cc(-c4cccc(F)c4OCC(F)(F)F)ccc23)CC1` [Example 44, 6-(3-fluoro-2-(2,2,2-trifluoroethoxy)phenyl)-1-methyl-N-((1-methylpiperidin-4-yl)methyl)-1H-indazol-3-amine], for which the concentration for half-maximal inhibition (IC50) in series [1] amounted to 1860 nM; in series [2], 4500 nM. In the case of `COc1ccc(OCC(F)(F)C(F)(F)F)c(-c2ccc3c(N)nn(C)c3c2)c1` [Example 3, 6-(5-methoxy-2-(2,2,3,3,3-pentafluoropropoxy)phenyl)-1-methyl-1H-indazol-3-amine], the IC50 in series [2] was more than 33000 nM. Turning to `Cn1nc(NCCCO)c2ccc(-c3ccccc3OCC(F)(F)C(F)(F)F)cc21` [Example 27, 3-(1-methyl-6-(2-(2,2,3,3,3-pentafluoropropoxy)phenyl)-1H-indazol-3-ylamino)propan-1-ol], the IC50 came to 1500 nM in series [1] and 19800 nM in series [2].

For the origin of these results see US10173985B2, “Aminoindazole derivatives as sodium channel inhibitors” (ALMIRALL, S.A., priority 2015, dated 2019).
